Assay [1] deals with Recombinant human BRD4(1-477) (Homo sapiens (Human), UniProt O60885). As to the kind of experiment: BRD4 TR-FRET biochemical IC50 assay. To be noted: tetra-acetylated histone peptide. In kind it is binding.
Assay [2] has as its system MV4-11. The assay can be described thus: MV4-11 (3 Days) EC50. In kind it is cell-based.
The target of assay [3] is Recombinant human BRD3(1-435) (Homo sapiens (Human), UniProt Q15059). The assay can be described thus: BRD3 TR-FRET biochemical IC50 assay. The assay is classed as binding. On the technique in general: TR-FRET usually uses a lanthanide donor and a delayed reading to cut background.
In assay [4] the target is Recombinant human BRD2(1-473) (Homo sapiens (Human), UniProt P25440). As to the kind of experiment: BRD2 TR-FRET biochemical IC50 assay. In kind it is binding.
For assay [5], the target named is Recombinant human BRDT(1-397) (Homo sapiens (Human), UniProt Q58F21). As to the kind of experiment: BRDT TR-FRET biochemical IC50 assay. In kind it is binding.
Where [6] appears, read: TR-FRET, tetra-acetylated histone peptide, read-out: BRD3 IC50.
The mark [7] stands for this setting: TR-FRET, tetra-acetylated histone peptide, read-out: BRD2 IC50.
Where [8] appears, read: TR-FRET, tetra-acetylated histone peptide, read-out: BRDT IC50.

The structures appear in SMILES notation. Where two headings read alike, the source gives them in different places.

Sequence of Recombinant human BRD2(1-473) (P25440 1-473): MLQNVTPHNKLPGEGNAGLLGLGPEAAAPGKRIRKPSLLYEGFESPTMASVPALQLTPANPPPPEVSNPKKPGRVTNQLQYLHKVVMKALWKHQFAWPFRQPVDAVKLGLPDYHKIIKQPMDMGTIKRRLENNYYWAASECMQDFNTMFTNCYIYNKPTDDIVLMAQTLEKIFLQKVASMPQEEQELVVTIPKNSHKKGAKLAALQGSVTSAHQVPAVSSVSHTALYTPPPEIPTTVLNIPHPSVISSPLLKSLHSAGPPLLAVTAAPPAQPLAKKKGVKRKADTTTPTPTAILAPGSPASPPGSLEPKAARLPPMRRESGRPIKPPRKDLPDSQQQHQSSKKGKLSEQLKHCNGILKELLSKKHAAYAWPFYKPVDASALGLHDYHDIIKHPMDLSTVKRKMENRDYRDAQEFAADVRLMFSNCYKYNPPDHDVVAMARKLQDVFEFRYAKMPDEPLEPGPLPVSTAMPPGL
Sequence of Recombinant human BRD3(1-435) (Q15059 1-435): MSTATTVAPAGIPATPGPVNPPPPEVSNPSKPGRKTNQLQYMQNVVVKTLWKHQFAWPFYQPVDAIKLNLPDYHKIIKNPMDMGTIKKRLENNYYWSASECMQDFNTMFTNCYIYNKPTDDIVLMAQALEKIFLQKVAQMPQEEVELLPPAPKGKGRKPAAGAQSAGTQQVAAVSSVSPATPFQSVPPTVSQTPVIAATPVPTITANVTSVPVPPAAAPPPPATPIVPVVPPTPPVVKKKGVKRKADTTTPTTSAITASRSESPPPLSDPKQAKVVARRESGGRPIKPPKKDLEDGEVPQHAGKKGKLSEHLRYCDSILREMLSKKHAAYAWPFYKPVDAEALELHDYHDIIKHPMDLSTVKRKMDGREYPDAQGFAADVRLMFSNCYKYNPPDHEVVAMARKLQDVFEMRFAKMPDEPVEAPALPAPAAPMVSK

`Cc1noc(C)c1-c1ccc2c(c1)C(NCC(C)O)(C1CCCCC1)C(=O)N2` (stereo in doubt) [Compound 2.22, 3-cyclohexyl-5-(3,5-dimethylisoxazol-4-yl)-3-((R)-2-hydroxypropylamino)indolin-2-one]: the IC50 in assay [1] (TR-FRET, read-out: BRD4 IC50) was 81 nM; in assay [3] (setting [6]), 23 nM; in assay [4] (setting [7]) it was 32 nM; in assay [5] (setting [8]), 42 nM. This compound gave a half-maximal effective concentration (EC50) in assay [2] of 116 nM.
On to `Cc1noc(C)c1-c1ccc2c(c1)C(N[C@@H](C)CO)(C1CCCCC1)C(=O)N2` (stereo partly drawn) [Compound 2.23, 3-cyclohexyl-5-(3,5-dimethylisoxazol-4-yl)-3-((S)-1-hydroxypropan-2-ylamino)indolin-2-one], for which, in assay [1] (TR-FRET, read-out: BRD4 IC50), the IC50 stood at 160 nM. This compound displayed an EC50 in assay [2] (Homo sapiens, MV4-11, 72 h) of 371 nM.
On to `Cc1noc(C)c1-c1ccc2c(c1)C(c1ccccc1)(N1CCC(O)CC1)C(=O)N2` (stereo not shown) [Compound 2.4, 5-(3,5-dimethylisoxazol-4-yl)-3-(4-hydroxypiperidin-1-yl)-3-phenylindolin-2-one], for which the IC50 in assay [1] (TR-FRET, read-out: BRD4 IC50) is 36 nM. The same compound displayed an EC50 in assay [2] (Homo sapiens, MV4-11, 72 h) of 76 nM.
With `Cc1noc(C)c1-c1ccc2c(c1)C(c1ccccc1)(N1CCC[C@H](N)C1)C(=O)N2` (stereo partly drawn) [Compound 2.46, 3-((S)-3-aminopiperidin-1-yl)-5-(3,5-dimethylisoxazol-4-yl)-3-phenylindolin-2-one], the IC50 stood at 11 nM in assay [1] (TR-FRET, read-out: BRD4 IC50); 5.3 nM in assay [3] (setting [6]); 6.6 nM in assay [4] (setting [7]); 14 nM in assay [5] (setting [8]).
With `Cc1noc(C)c1-c1ccc2c(c1)C(C1CCCCC1)(N1CCOCC1)C(=O)N2` (stereo not shown) [Compound 2.29], in assay [1] (TR-FRET, read-out: BRD4 IC50), the concentration for half-maximal inhibition (IC50) was determined as 94 nM. This compound also yielded a concentration for a half-maximal effect (EC50) in assay [2] (Homo sapiens, MV4-11, 72 h) of 314 nM.
For the compound `Cc1noc(C)c1-c1ccc2c(c1)C(O)(C1CCOCC1)C(=O)N2` (stereo not shown) [Compound 1.16, 5-(3,5-dimethylisoxazol-4-yl)-3-hydroxy-3-(tetrahydro-2H-pyran-4-yl)indolin-2-one], the IC50 in assay [1] (TR-FRET, read-out: BRD4 IC50) amounted to 630 nM; in assay [3] (setting [6]) it was 140 nM; in assay [4] (setting [7]), 380 nM; in assay [5] (setting [8]) it was 510 nM.
Turning to `Cc1noc(C)c1-c1ccc2c(c1)C(O)(c1ccsc1)C(=O)N2` (single isomer, unassigned) [Compound 4.1b, 5-(3,5-Dimethylisoxazol-4-yl)-3-hydroxy-3-(thiophen-3-yl)indolin-2-one], the IC50 was 34 nM in assay [1] (BRD4 IC50, TR-FRET); 14 nM in assay [3]; 18 nM in assay [4]; 31 nM in assay [5]. Besides, it took 73 nM to reach a half-maximal effect in assay [2] (Homo sapiens, 72 h) (EC50).
On to `Cc1noc(C)c1-c1ccc2c(c1)C(c1ccccc1)(N1CCOCC1)C(=O)N2` (stereo not shown) [Compound 2.6, 5-(3,5-dimethylisoxazol-4-yl)-3-morpholino-3-phenylindolin-2-one], for which, in assay [1] (TR-FRET, read-out: BRD4 IC50), the IC50 stood at 63 nM. Also, the half-maximal effective concentration (EC50) in assay [2] (Homo sapiens, MV4-11, 72 h) came to 179 nM.
With `Cc1noc(C)c1-c1ccc2c(c1)C(C1CCCC1)(N1CCNCC1)C(=O)N2` (stereo not shown) [Compound 2.40, 3-Cyclopentyl-5-(3,5-dimethylisoxazol-4-yl)-3-(piperazin-1-yl)indolin-2-one], in assay [1] (TR-FRET, read-out: BRD4 IC50), the half-inhibitory concentration (IC50) was 150 nM. In assay [2] (Homo sapiens, MV4-11, 72 h), this compound registered an EC50 of 555 nM.
For `Cc1noc(C)c1-c1ccc2c(c1)C(N[C@H](C)CO)(C1CCCCC1)C(=O)N2` (stereo partly drawn) [Compound 2.24, 3-cyclohexyl-5-(3,5-dimethylisoxazol-4-yl)-3-((R)-1-hydroxypropan-2-ylamino)indolin-2-one] the same measures were 75 nM and 349 nM.
Turning to `Cc1noc(C)c1-c1ccc2c(c1)C(N[C@H](C)CO)(c1ccccc1)C(=O)N2` (single isomer, unassigned) [Compound 2.10a], the IC50 came out at 23 nM in assay [3] (setting [6]), 24 nM in assay [4] (setting [7]) and 69 nM in assay [5] (setting [8]).
In the case of `Cc1noc(C)c1-c1ccc2c(c1)C(c1ccccc1)C(=O)N2` (stereo not shown) [Compound 3.1, 5-(3,5-Dimethylisoxazol-4-yl)-3-phenylindolin-2-one], in assay [1] (TR-FRET, read-out: BRD4 IC50), the concentration for half-maximal inhibition (IC50) was 110 nM. The compound further returned a concentration for a half-maximal effect (EC50) in assay [2] (Homo sapiens, MV4-11, 72 h) of 382 nM.
Regarding `Cc1noc(C)c1-c1ccc2c(c1)C(NC[C@H](C)O)(C1CCCCC1)C(=O)N2` (stereo partly drawn) [Compound 2.21, 3-cyclohexyl-5-(3,5-dimethylisoxazol-4-yl)-3-((S)-2-hydroxypropylamino)indolin-2-one], in assay [1] (TR-FRET, read-out: BRD4 IC50), the half-inhibitory concentration (IC50) is 88 nM. In assay [2], this compound had an EC50 of 270 nM.
For the compound `Cc1noc(C)c1-c1ccc2c(c1)C(N[C@H](CO)C(C)C)(c1ccccc1)C(=O)N2` (single isomer, unassigned) [Compound 2.12a], the 50% inhibitory concentration (IC50) in assay [1] (TR-FRET, read-out: BRD4 IC50) worked out at 89 nM. Also, the EC50 in assay [2] (Homo sapiens, MV4-11, 72 h) is 144 nM.
As for `Cc1noc(C)c1-c1ccc2c(c1)C(O)(c1ccc(Cl)cc1)C(=O)N2` (stereo not shown) [Compound 1.2, 3-(4-chlorophenyl)-5-(3,5-dimethylisoxazol-4-yl)-3-hydroxyindolin-2-one], the half-maximal inhibitory concentration (IC50) in assay [1] (TR-FRET, read-out: BRD4 IC50) came out at 260 nM. Moreover, a half-maximal response in assay [2] (Homo sapiens, 72 h) (EC50) required 364 nM.
For the compound `Cc1noc(C)c1-c1ccc2c(c1)C(c1ccccc1)(N1CCNCC1)C(=O)N2` (stereo not shown) [Compound 2.38, 5-(3,5-dimethylisoxazol-4-yl)-3-phenyl-3-(piperazin-1-yl)indolin-2-one], the IC50 in assay [1] (TR-FRET, read-out: BRD4 IC50) amounted to 120 nM. In assay [2] (Homo sapiens, MV4-11, 72 h), the EC50 came out at 504 nM.
Take `Cc1ccsc1C1(O)C(=O)Nc2ccc(-c3c(C)noc3C)cc21` (stereo not shown) [Compound 1.13, 5-(3,5-dimethylisoxazol-4-yl)-3-hydroxy-3-(3-methylthiophen-2-yl)indolin-2-one]: in assay [1] (TR-FRET, read-out: BRD4 IC50), the IC50 turned out to be 560 nM. The compound further showed an EC50 in assay [2] (Homo sapiens, 72 h) of 746 nM.
For `Cc1noc(C)c1-c1ccc2c(c1)C(O)(c1ccc(F)cc1)C(=O)N2` (stereo not shown) [Compound 1.4, 5-(3,5-dimethylisoxazol-4-yl)-3-(4-fluorophenyl)-3-hydroxyindolin-2-one] the same measures were 100 nM and 181 nM.
On to `Cc1noc(C)c1-c1ccc2c(c1)C(O)(c1ccccc1)C(=O)N2` (stereo not shown) [Compound 1.1, 5-(3,5-dimethylisoxazol-4-yl)-3-hydroxy-3-phenylindolin-2-one], for which the IC50 in assay [1] (TR-FRET, read-out: BRD4 IC50) worked out at 51 nM. The same compound registered an EC50 in assay [2] (Homo sapiens, 72 h) of 124 nM.
With `Cc1noc(C)c1-c1ccc2c(c1)C(C1CCCCC1)(N1CCNCC1)C(=O)N2` (stereo not shown) [Compound 2.39], in assay [1] (TR-FRET, read-out: BRD4 IC50), the half-maximal inhibitory concentration (IC50) came out at 76 nM. The compound further registered an EC50 in assay [2] (Homo sapiens, MV4-11, 72 h) of 365 nM.
Consider `Cc1noc(C)c1-c1ccc2c(c1)C(O)(c1ccsc1)C(=O)N2` (stereo not shown) [Compound 4.1, 5-(3,5-Dimethylisoxazol-4-yl)-3-hydroxy-3-(thiophen-3-yl)indolin-2-one], for which, in assay [1] (TR-FRET, read-out: BRD4 IC50), the IC50 is 100 nM. Also, in assay [2] (Homo sapiens, 72 h), the EC50 is 140 nM.
For the compound `Cc1noc(C)c1-c1ccc2c(c1)C(NC[C@@H](C)O)(c1ccccc1)C(=O)N2` (single isomer, unassigned) [Compound 2.13b], the concentration for half-maximal inhibition (IC50) in assay [1] (TR-FRET, read-out: BRD4 IC50) amounted to 81 nM. This compound also showed a concentration giving a half-maximal response (EC50) in assay [2] (Homo sapiens, MV4-11, 72 h) of 140 nM.
For the compound `Cc1noc(C)c1-c1ccc2c(c1)C(O)(C1CCC1)C(=O)N2` (stereo not shown) [Compound 1.18, 3-cyclobutyl-5-(3,5-dimethylisoxazol-4-yl)-3-hydroxyindolin-2-one], the IC50 in assay [1] (TR-FRET, read-out: BRD4 IC50) amounted to 510 nM. The EC50 in assay [2] (Homo sapiens, 72 h) is 1140 nM.
With `Cc1noc(C)c1-c1ccc2c(c1)C(N)(c1ccccc1)C(=O)N2` (single isomer, unassigned) [Compound 2.2a, 3-amino-5-(3,5-dimethylisoxazol-4-yl)-3-phenylindolin-2-one], the half-inhibitory concentration (IC50) in assay [1] (TR-FRET, read-out: BRD4 IC50) was determined as 24 nM. The compound also gave a concentration for a half-maximal effect (EC50) in assay [2] of 159 nM.
Turning to `Cc1noc(C)c1-c1ccc2c(c1)C(c1ccsc1)(N1CCC[C@@H](N)C1)C(=O)N2` (single isomer, unassigned) [Compound 4.6b], the IC50 in assay [1] (TR-FRET, read-out: BRD4 IC50) was found to be 24 nM. Further, in assay [2], the 50% effective concentration (EC50) worked out at 35 nM.
As to `Cc1noc(C)c1-c1ccc2c(c1)C(N[C@H](CO)C(C)C)(C1CCCCC1)C(=O)N2` (single isomer, unassigned) [Compound 2.19b], in assay [1] (TR-FRET, read-out: BRD4 IC50), the IC50 was determined as 170 nM. In assay [2] (Homo sapiens, MV4-11, 72 h), this compound returned an EC50 of 282 nM.
For `Cc1noc(C)c1-c1ccc2c(c1)C(NCCO)(C1CCCC1)C(=O)N2` (stereo not shown) [Compound 2.35, 3-cyclopentyl-5-(3,5-dimethylisoxazol-4-yl)-3-(2-hydroxyethylamino)indolin-2-one] the same measures were 130 nM and 324 nM.
For `Cc1noc(C)c1-c1ccc2c(c1)C(c1ccccc1)(N1CCCCC1)C(=O)N2` (stereo not shown) [Compound 2.3, 5-(3,5-dimethylisoxazol-4-yl)-3-phenyl-3-(piperidin-1-yl)indolin-2-one] the same measures were 84 nM and 542 nM.
For `Cc1noc(C)c1-c1ccc2c(c1)C(c1ccccc1)(N1CCC[C@H](O)C1)C(=O)N2` (stereo partly drawn) [Compound 2.16, 5-(3,5-dimethylisoxazol-4-yl)-3-((S)-3-hydroxypiperidin-1-yl)-3-phenylindolin-2-one], the 50% inhibitory concentration (IC50) worked out at 9.9 nM in assay [3] (setting [6]), 9.6 nM in assay [4] (setting [7]) and 23 nM in assay [5] (setting [8]).
On to `Cc1noc(C)c1-c1ccc2c(c1)C(O)(C1CCCCC1=O)C(=O)N2` (single isomer, unassigned) [Compound 1.30a, 5-(3,5-Dimethylisoxazol-4-yl)-3-hydroxy-3-(2-oxocyclohexyl)indolin-2-one], for which the IC50 in assay [1] (TR-FRET, read-out: BRD4 IC50) came out at 70 nM; in assay [3] (setting [6]), 25 nM; in assay [4] (setting [7]) it was 52 nM; in assay [5] (setting [8]), 58 nM.
For the compound `Cc1cc(C2(O)C(=O)Nc3ccc(-c4c(C)noc4C)cc32)ccc1F` (stereo not shown) [Compound 1.6, 5-(3,5-dimethylisoxazol-4-yl)-3-(4-fluoro-3-methylphenyl)-3-hydroxyindolin-2-one], in assay [1] (TR-FRET, read-out: BRD4 IC50), the IC50 is 380 nM. The 50% effective concentration (EC50) in assay [2] (Homo sapiens, 72 h) amounted to 594 nM.

By IC50 is commonly meant the concentration at which inhibition is half-maximal. Broadly, the EC50 is the concentration giving half of the maximal effect. Low values mean greater potency, high ones weaker potency.

Values taken from patent US9393232B2 (BeiGene, Ltd., priority 2013, dated 2016).
